Common to all, as to type: cell-based
One test addresses T1, human TLR7 (Homo sapiens, UniProt Q9NYK1).
T1 construct: host or cells: HEK-Blue cells
T1 sequence (Q9NYK1 27-1049): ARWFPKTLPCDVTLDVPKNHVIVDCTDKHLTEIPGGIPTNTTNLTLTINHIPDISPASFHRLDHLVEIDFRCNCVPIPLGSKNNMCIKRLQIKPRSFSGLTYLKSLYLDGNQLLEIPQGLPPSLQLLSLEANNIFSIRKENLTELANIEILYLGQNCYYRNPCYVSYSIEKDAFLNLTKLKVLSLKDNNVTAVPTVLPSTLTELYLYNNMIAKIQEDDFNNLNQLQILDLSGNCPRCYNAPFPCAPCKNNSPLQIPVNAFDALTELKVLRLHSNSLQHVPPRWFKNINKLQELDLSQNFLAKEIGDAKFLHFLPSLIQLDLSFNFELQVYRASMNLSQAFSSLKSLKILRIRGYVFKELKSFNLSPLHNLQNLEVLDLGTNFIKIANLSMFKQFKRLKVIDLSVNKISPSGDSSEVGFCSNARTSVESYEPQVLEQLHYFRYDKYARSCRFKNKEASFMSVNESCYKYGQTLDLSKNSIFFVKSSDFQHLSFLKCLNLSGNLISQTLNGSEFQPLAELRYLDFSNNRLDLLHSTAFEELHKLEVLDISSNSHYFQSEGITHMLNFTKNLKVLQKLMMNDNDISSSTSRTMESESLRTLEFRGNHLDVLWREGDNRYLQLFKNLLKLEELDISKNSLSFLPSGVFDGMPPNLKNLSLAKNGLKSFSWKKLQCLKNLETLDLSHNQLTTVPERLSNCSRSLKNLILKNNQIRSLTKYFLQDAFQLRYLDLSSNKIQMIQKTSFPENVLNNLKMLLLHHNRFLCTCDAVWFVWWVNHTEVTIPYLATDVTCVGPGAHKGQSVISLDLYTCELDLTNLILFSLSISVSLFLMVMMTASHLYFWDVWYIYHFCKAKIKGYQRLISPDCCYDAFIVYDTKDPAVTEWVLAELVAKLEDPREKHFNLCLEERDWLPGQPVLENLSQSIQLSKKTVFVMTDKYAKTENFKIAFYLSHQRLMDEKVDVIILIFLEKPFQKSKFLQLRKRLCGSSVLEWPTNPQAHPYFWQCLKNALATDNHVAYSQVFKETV
The test can be described thus: TLR7 inhibition reporter assay (HEK-Blue cells, SEAP reporter, gardiquimod stimulation). Conditions: HEK-Blue cells overexpressing human TLR7, SEAP reporter, gardiquimod 7.5 μM. An outline of the steps: (§1)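 SEAP readout after 22 h agonist exposure at 37 °C; final agonist levels were 7.5 μM gardiquimod (TLR7), 15.9 μM R848 (TLR8) and 5 nM ODN2006 (TLR9). Inhibitors, spanning 0.05 nM to 50 μM final, were applied 30 min beforehand.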

For another test, the target named is T2, human TLR9 (Homo sapiens, UniProt Q9NR96).
T2 construct: host or cells: HEK-Blue cells
T2 sequence (Q9NR96 26-1032): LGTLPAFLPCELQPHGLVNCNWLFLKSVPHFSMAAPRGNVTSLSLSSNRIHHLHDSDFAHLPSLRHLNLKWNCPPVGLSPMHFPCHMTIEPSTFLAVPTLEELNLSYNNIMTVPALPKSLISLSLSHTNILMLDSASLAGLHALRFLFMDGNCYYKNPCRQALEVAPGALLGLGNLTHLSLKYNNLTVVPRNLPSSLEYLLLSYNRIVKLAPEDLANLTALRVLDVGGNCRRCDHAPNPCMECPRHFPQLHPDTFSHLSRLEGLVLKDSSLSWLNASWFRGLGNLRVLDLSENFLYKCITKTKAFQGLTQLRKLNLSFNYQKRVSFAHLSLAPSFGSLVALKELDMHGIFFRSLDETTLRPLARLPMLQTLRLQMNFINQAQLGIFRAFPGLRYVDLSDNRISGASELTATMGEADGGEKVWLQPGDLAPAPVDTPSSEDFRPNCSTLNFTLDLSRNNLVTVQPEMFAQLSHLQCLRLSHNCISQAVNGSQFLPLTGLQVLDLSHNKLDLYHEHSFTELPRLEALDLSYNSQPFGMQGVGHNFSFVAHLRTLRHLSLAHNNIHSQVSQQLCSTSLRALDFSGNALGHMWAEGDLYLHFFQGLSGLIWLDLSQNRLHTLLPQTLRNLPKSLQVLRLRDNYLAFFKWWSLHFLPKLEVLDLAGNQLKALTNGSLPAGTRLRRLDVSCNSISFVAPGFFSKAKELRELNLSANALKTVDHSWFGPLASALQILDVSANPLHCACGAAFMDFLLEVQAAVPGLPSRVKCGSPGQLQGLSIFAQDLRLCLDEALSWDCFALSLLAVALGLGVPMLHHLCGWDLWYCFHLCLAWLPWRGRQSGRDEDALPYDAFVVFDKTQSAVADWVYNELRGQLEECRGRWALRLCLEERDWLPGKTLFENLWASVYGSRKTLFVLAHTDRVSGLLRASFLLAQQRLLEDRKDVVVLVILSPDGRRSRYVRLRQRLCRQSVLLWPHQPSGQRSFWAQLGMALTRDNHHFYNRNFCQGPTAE
Kind of test: TLR9 inhibition reporter assay (HEK-Blue cells, SEAP reporter, ODN2006 stimulation). To be noted: HEK-Blue cells overexpressing human TLR9, SEAP reporter, ODN2006 5 nM. In short, it runs like this: as §1
In general terms: Reporter assays use an easily measured gene product as a stand-in for the process of interest.

The target of the next test is T3, human TLR8 (Homo sapiens, UniProt Q9NR97).
T3 construct: host or cells: HEK-Blue cells
T3 sequence (Q9NR97 27-1041): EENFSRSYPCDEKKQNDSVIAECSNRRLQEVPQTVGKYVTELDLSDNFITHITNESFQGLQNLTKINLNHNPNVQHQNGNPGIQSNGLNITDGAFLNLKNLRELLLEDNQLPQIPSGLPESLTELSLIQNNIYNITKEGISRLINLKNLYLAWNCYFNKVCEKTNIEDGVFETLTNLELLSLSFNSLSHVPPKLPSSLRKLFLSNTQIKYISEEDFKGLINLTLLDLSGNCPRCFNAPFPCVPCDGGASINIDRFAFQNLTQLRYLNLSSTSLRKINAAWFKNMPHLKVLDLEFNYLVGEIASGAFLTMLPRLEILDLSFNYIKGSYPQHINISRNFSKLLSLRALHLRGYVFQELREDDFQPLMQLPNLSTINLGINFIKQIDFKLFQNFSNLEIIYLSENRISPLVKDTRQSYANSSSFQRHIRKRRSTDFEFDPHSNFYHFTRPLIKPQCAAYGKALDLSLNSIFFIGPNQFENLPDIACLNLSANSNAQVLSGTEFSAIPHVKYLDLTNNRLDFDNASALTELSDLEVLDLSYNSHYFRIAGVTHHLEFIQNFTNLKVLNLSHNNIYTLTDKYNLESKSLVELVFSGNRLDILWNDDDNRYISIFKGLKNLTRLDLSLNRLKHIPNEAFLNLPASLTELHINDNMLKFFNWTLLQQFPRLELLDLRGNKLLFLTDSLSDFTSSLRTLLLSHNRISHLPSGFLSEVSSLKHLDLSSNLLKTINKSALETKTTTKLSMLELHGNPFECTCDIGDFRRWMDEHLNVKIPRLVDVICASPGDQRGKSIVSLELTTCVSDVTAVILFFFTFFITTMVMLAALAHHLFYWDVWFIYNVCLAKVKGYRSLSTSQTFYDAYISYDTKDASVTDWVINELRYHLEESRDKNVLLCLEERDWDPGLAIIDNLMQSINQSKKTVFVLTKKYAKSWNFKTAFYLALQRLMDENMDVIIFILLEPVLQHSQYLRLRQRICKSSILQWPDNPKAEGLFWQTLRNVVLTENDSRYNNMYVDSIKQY
Kind of test: TLR8 inhibition reporter assay (HEK-Blue cells, SEAP reporter, R848 stimulation). Conditions: HEK-Blue cells overexpressing human TLR8, SEAP reporter, R848 15.9 μM. An outline of the steps: as §1

A word on the IC50: it is the point on the concentration scale where inhibition reaches its midpoint. High values mean weaker potency in that assay, low ones greater potency in that assay. `CNCC(=O)N1CCOC(c2ccc3[nH]c(-c4cc(C)c5ncnn5c4)c(C(C)C)c3c2)C1` (stereo not drawn) [Example 337, 1-(2-(3-isopropyl-2-(8-methyl-[1,2,4]triazolo[1,5-a]pyridin-6-yl)-1H-indol-5-yl)morpholino)-2-(methylamino)ethanone]: the IC50 at human TLR7 turned out to be 0.001 µM; on human TLR9, 3.28 µM; against human TLR8, 0.0071 µM.

In the case of `CNC(=O)CN1CCOC(c2ccc3[nH]c(-c4cc(OC)c5ncnn5c4)c(C(C)C)c3c2)C1` (stereo not drawn) [Example 315], the IC50 against human TLR7 was 0.009 µM; on human TLR9, more than 50 µM; on human TLR8 it was 0.026 µM.

As for `Cc1cc(-c2[nH]c3ccc(C4CCC(N5CCC(F)(F)CC5)CC4)cc3c2C(C)C)cn(C)c1=O` (stereo not drawn) [Example 466], the IC50 against human TLR7 was 0.032 µM; against human TLR9, more than 50 µM; against human TLR8, 0.026 µM.

In the case of `COc1cc(-c2[nH]c3ccc(C4CCC(N5CC6(COC6)C5)CC4)cc3c2C(C)C)cn2ncnc12` (stereo not drawn) [Example 73], the IC50 at human TLR7 turned out to be 0.00032 µM; at human TLR9, 1.59 µM; on human TLR8, 0.00058 µM.

As to `Cc1c(-c2[nH]c3ccc(C4CN(CCS(C)(=O)=O)C4)cc3c2C(C)C)cn2cnnc2c1C` [Example 532], the IC50 at human TLR7 was 0.013 µM; against human TLR9 it was 16.9 µM; on human TLR8 it was 0.02 µM.

Consider `CNC(=O)CN1CCOC(c2ccc3[nH]c(-c4cn5ncnc5c(C)c4C)c(C(C)C)c3c2)C1` (stereo not drawn) [Example 313], for which the IC50 at human TLR7 is 0.025 µM; against human TLR9, more than 50 µM; against human TLR8, 0.06 µM.

For the compound `Cc1c(-c2[nH]c3ccc(C4CCCNC4)cc3c2C(C)C)cn2ncnc2c1C` (stereo not drawn) [Example 189], the IC50 against human TLR7 came to 0.00034 µM; against human TLR9, 1.03 µM; against human TLR8, 0.00023 µM.

`Cc1cc(-c2[nH]c3ccc(C4CNC4)cc3c2C(C)C)cc(C)n1` [Example 259]: the figures for the IC50 at human TLR7, against human TLR9 and against human TLR8 were 0.004 µM, 0.7 µM and 0.011 µM, respectively.

Consider `CNC(=O)CNC1CCC(c2ccc3[nH]c(-c4cc(OC)c5ncnn5c4)c(C(C)C)c3c2)CC1` (stereo not drawn) [Example 166], for which the IC50 was 0.004 µM on human TLR7, 16.9 µM on human TLR9 and 0.018 µM at human TLR8.

As for `COc1cc(-c2[nH]c3ccc(CCC4CNC4)cc3c2C(C)C)cn2ncnc12` [Example 440], the IC50 on human TLR7 amounted to 0.004 µM; against human TLR9 it was 1.48 µM; at human TLR8, 0.016 µM.

For `CNCCN1CCCC(c2ccc3[nH]c(-c4ccnc(C)c4)c(C(C)C)c3c2)C1` (stereo not drawn) [Example 256], the values for the IC50 against human TLR7, at human TLR9 and at human TLR8 were 0.226 µM, 0.611 µM and 0.0032 µM, respectively.

For the compound `Cc1cc(-c2[nH]c3ccc(C4CCC(C(=O)N5CCCCC5)CC4)cc3c2C(C)C)cn2ncnc12` (single isomer, unassigned) [Example 159], the IC50 against human TLR7 came to 1.69 µM; on human TLR9, 28.6 µM; against human TLR8, 1.85 µM.

Turning to `CNC1CCC(c2ccc3[nH]c(-c4cc(C)c5ncnn5c4)c(C(C)C)c3c2)CC1` (single isomer, unassigned) [Example 58], the IC50 on human TLR7 is 0.002 µM; against human TLR9 it was 3.1 µM; at human TLR8, 0.0066 µM.

As for `COc1cc(-c2[nH]c3ccc(C4CCC(NC(=O)CN5CCCC5)CC4)cc3c2C(C)C)cn2ncnc12` (stereo not drawn) [Example 133], the IC50 came out at 0.00028 µM against human TLR7, 2.02 µM on human TLR9 and 0.00075 µM against human TLR8.

Turning to `COc1cc(-c2[nH]c3ccc(C4CCCN(CC(C)(C)O)C4)cc3c2C(C)C)cn2ncnc12` (stereo not drawn) [Example 248, 1-(3-(3-isopropyl-2-(8-methoxy-[1,2,4]triazolo[1,5-a]pyridin-6-yl)-1H-indol-5-yl)piperidin-1-yl)-2-methylpropan-2-ol], the IC50 stood at 0.00076 µM at human TLR7, 2.01 µM at human TLR9 and 0.0021 µM against human TLR8.

Turning to `Cc1cc(-c2[nH]c3ccc(C4CCC(N)CC4)cc3c2C(C)C)cn2ncnc12` (single isomer, unassigned) [Example 4], the values for the IC50 on human TLR7, on human TLR9 and against human TLR8 were 0.006 µM, 3.17 µM and 0.045 µM, respectively.

Take `COc1cc(-c2[nH]c3ccc(C4CCC(N(C)C(C)C)C4)cc3c2C(C)C)cn2ncnc12` (single isomer, unassigned) [Example 278, N-isopropyl-3-(3-isopropyl-2-(8-methoxy-[1,2,4]triazolo[1,5-a]pyridin-6-yl)-1H-indol-5-yl)-N-methylcyclopentan-1-amine]: the 50% inhibitory concentration (IC50) is 0.002 µM against human TLR7, 1.41 µM against human TLR9 and 0.0015 µM on human TLR8.

Consider `Cc1cc(-c2[nH]c3ccc(C4CCNC4)cc3c2C(C)C)cc(C)n1` (stereo not drawn) [Example 590], for which the IC50 on human TLR7 is 0.005 µM; on human TLR9 it was 0.93 µM; against human TLR8, 0.0005 µM.

As to `COc1cc(-c2[nH]c3ccc(C4CCC(NC(=O)CNC5COC5)CC4)cc3c2C(C)C)cn2ncnc12` (stereo not drawn) [Example 137], the IC50 was found to be 0.002 µM at human TLR7, 26.6 µM against human TLR9 and 0.0049 µM against human TLR8.
